Patent US8609610B2, “Inhibitors of the trypsin-like site of the proteasome and methods of use thereof” (Trustees of Dartmouth College, priority 2011, dated 2013)

What was measured:
[1] = system: chymotrypsin-like sites (β5) of proteasome in MM cells; test: PROTEASOMEGLO assay of proteasome inhibition in MM cells; assay type: cell-based; settings: washout
[2] = system: T1, chymotrypsin-like sites (β5) of proteasome in MM cells; test: as above; assay type: cell-based; settings: for Inhibition of chymotrypsin-like sites, 6 h −NC-022: washout
T1 construct: other: NCI-H929; bortezomib 100 nM 1 h; bortezomib 11 nM 1 h; bortezomib 3.7 nM 1 h; bortezomib 33 nM 1 h; other: NCI-H9

[3] = biological target: T2, trypsin-like sites (β2) of proteasome in MM cells (Homo sapiens, UniProt Q99436); test: as above; assay type: cell-based; settings: for Inhibition of trypsin-like sites, 6 h +NC-022 / Inhibition of trypsin-like sites, 6 h −NC-022: washout
T2 construct: endogenous in cells; host or cells: NCI-H929, RPMI-8226 and other MM cell lines
T2 sequence (Q99436 44-277): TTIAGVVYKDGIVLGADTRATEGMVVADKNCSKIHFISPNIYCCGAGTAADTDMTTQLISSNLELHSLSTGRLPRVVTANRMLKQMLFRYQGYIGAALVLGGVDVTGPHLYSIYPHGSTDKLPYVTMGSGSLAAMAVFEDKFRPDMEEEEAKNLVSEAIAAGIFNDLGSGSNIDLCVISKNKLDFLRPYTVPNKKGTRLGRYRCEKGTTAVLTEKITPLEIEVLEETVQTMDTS

KMS-12-BM cells = test: ALAMAR BLUE cell viability assay; assay type: cell-based; settings: viability at 48 h
Protocol: (§1) RPMI-8226 and NCI-H929 cells were cultured in RPMI-1640 supplemented with 10% fetal bovine serum, penicillin, streptomycin, and plasmocin in 5% CO2 humidified incubator. HEK-293T cells were cultured in DMEM containing 10% fetal calf serum, 10 units/mL penicillin, and 10 μg/mL streptomycin in a 7% CO2 humidified incubator. Viability of multiple myeloma cells was measured with ALAMAR BLUE mitochondrial dye conversion assay. Viability of peripheral blood mononuclear cells (PBMNCs) was measured using CELL TITER-GLO luminescent cell viability assay (Promega), which is based on quantification of ATP present in the cells. Caspase-3/7 activity was measured using APO-ONE 3/7 homogeneous assay (Promega).

NCI-H929 cells = test: ALAMAR BLUE cell viability assay; assay type: cell-based; settings: NCI-H929, viability at 48 h
Protocol: as §1

chymotrypsin-like sites = settings: patients treated with carfilzomib; cited from earlier work
[4] = KMS-12-BM, carfilzomib 11 nM 1 h
[5] = KMS-12-BM, carfilzomib 33 nM 1 h
[6] = KMS-12-BM, carfilzomib 100 nM 1 h
[7] = KMS-12-BM, carfilzomib 300 nM 1 h
[8] = KMS-12-BM, carfilzomib 900 nM 1 h
[9] = NCI-H929, carfilzomib 3.7 nM 1 h
[10] = NCI-H929, carfilzomib 11 nM 1 h
[11] = NCI-H929, carfilzomib 33 nM 1 h

CC(C)C[C@H](NC(=O)[C@H](CCc1ccccc1)NC(=O)CN1CCOCC1)C(=O)N[C@@H](Cc1ccccc1)C(=O)N[C@@H](CC(C)C)C(=O)[C@@]1(C)CO1 [Carfilzomib]
Inhibition of chymotrypsin-like sites, 6 h +NC-022 [1, 4]: 63 ± 13 % control
Inhibition of chymotrypsin-like sites, 6 h +NC-022 [1, 5]: 84 ± 6 % control
Inhibition of chymotrypsin-like sites, 6 h +NC-022 [1, 6]: 90 ± 3 % control
Inhibition of chymotrypsin-like sites, 6 h +NC-022 [1, 7]: 95 ± 4 % control
Inhibition of chymotrypsin-like sites, 6 h +NC-022 [1, 8]: 99 ± 4 % control
Inhibition of chymotrypsin-like sites, 6 h +NC-022 [1, 9]: 41 ± 29 % control
Inhibition of chymotrypsin-like sites, 6 h +NC-022 [1, 10]: 52 ± 32 % control
Inhibition of chymotrypsin-like sites, 6 h +NC-022 [1, 11]: 71 ± 23 % control
Inhibition of chymotrypsin-like sites, 1 h [2, 4]: 75 ± 6 % control
Inhibition of chymotrypsin-like sites, 6 h −NC-022 [2, 4]: 67 ± 17 % control
Inhibition of chymotrypsin-like sites, 1 h [2, 5]: 90 ± 3 % control
Inhibition of chymotrypsin-like sites, 6 h −NC-022 [2, 5]: 97 ± 1 % control
Inhibition of chymotrypsin-like sites, 1 h [2, 6]: 95 ± 3 % control
Inhibition of chymotrypsin-like sites, 6 h −NC-022 [2, 6]: 97 ± 1 % control
Inhibition of chymotrypsin-like sites, 1 h [2, 7]: 97 ± 3 % control
Inhibition of chymotrypsin-like sites, 6 h −NC-022 [2, 7]: 97 ± 1 % control
Inhibition of chymotrypsin-like sites, 1 h [2, 8]: 98 ± 3 % control
Inhibition of chymotrypsin-like sites, 6 h −NC-022 [2, 8]: 97 ± 0 % control
Inhibition of chymotrypsin-like sites, 1 h [2, 9]: 14 ± 43 % control
Inhibition of chymotrypsin-like sites, 6 h −NC-022 [2, 9]: 65.5 % control
Inhibition of chymotrypsin-like sites, 1 h [2, 10]: 39 ± 35 % control
Inhibition of chymotrypsin-like sites, 6 h −NC-022 [2, 10]: 89 ± 11 % control
Inhibition of chymotrypsin-like sites, 1 h [2, 11]: 75 ± 17 % control
Inhibition of chymotrypsin-like sites, 6 h −NC-022 [2, 11]: 95 ± 7 % control
Inhibition of trypsin-like sites, 1 h [3, 4]: −3 ± 10 % control
Inhibition of trypsin-like sites, 6 h +NC-022 [3, 4]: 91 ± 2 % control
Inhibition of trypsin-like sites, 6 h −NC-022 [3, 4]: 5 ± 25 % control
Inhibition of trypsin-like sites, 1 h [3, 5]: 0 ± 11 % control
Inhibition of trypsin-like sites, 6 h +NC-022 [3, 5]: 91 ± 2 % control
Inhibition of trypsin-like sites, 6 h −NC-022 [3, 5]: 45 ± 4 % control
Inhibition of trypsin-like sites, 1 h [3, 6]: 18 ± 8 % control
Inhibition of trypsin-like sites, 6 h +NC-022 [3, 6]: 94 ± 2 % control
Inhibition of trypsin-like sites, 6 h −NC-022 [3, 6]: 62 ± 2 % control
Inhibition of trypsin-like sites, 1 h [3, 7]: 49 ± 18 % control
Inhibition of trypsin-like sites, 6 h +NC-022 [3, 7]: 93 ± 2 % control
Inhibition of trypsin-like sites, 6 h −NC-022 [3, 7]: 69 ± 2 % control
Inhibition of trypsin-like sites, 1 h [3, 8]: 75 ± 14 % control
Inhibition of trypsin-like sites, 6 h +NC-022 [3, 8]: 94 ± 3 % control
Inhibition of trypsin-like sites, 6 h −NC-022 [3, 8]: 72 ± 2 % control
Inhibition of trypsin-like sites, 1 h [3, 9]: −7 ± 18 % control
Inhibition of trypsin-like sites, 6 h +NC-022 [3, 9]: 93 ± 3 % control
Inhibition of trypsin-like sites, 6 h −NC-022 [3, 9]: 3 % control
Inhibition of trypsin-like sites, 1 h [3, 10]: 0 ± 14 % control
Inhibition of trypsin-like sites, 6 h +NC-022 [3, 10]: 93 ± 2 % control
Inhibition of trypsin-like sites, 6 h −NC-022 [3, 10]: 39 ± 36 % control
Inhibition of trypsin-like sites, 1 h [3, 11]: 17 ± 8 % control
Inhibition of trypsin-like sites, 6 h +NC-022 [3, 11]: 94 ± 3 % control
Inhibition of trypsin-like sites, 6 h −NC-022 [3, 11]: 46 ± 24 % control
Viability +NC-022 (KMS-12-BM cells; carfilzomib 11 nM 1 h): 69 ± 2 % control
Viability −NC-022 (KMS-12-BM cells; carfilzomib 11 nM 1 h): 95 ± 3 % control
Viability +NC-022 (KMS-12-BM cells; carfilzomib 33 nM 1 h): 40 ± 3 % control
Viability −NC-022 (KMS-12-BM cells; carfilzomib 33 nM 1 h): 91 ± 3 % control
Viability +NC-022 (KMS-12-BM cells; carfilzomib 100 nM 1 h): 27 ± 5 % control
Viability −NC-022 (KMS-12-BM cells; carfilzomib 100 nM 1 h): 83.5 ± 3 % control
Viability +NC-022 (KMS-12-BM cells; carfilzomib 300 nM 1 h): 15 ± 1 % control
Viability −NC-022 (KMS-12-BM cells; carfilzomib 300 nM 1 h): 71 ± 2 % control
Viability +NC-022 (KMS-12-BM cells; carfilzomib 900 nM 1 h): 9 ± 1 % control
Viability −NC-022 (KMS-12-BM cells; carfilzomib 900 nM 1 h): 41 ± 7 % control
Viability +NC-022 (NCI-H929 cells; carfilzomib 3.7 nM 1 h): 36 ± 15 % control
Viability −NC-022 (NCI-H929 cells; carfilzomib 3.7 nM 1 h): 99 ± 9 % control
Viability +NC-022 (NCI-H929 cells; carfilzomib 11 nM 1 h): 14 ± 8 % control
Viability −NC-022 (NCI-H929 cells; carfilzomib 11 nM 1 h): 78 ± 15 % control
Viability +NC-022 (NCI-H929 cells; carfilzomib 33 nM 1 h): 4 ± 2 % control
Viability −NC-022 (NCI-H929 cells; carfilzomib 33 nM 1 h): 30 ± 11 % control
inhibition of the chymotrypsin-like sites in patients (chymotrypsin-like sites): ~90%
